In patent US5596016A, “1,2-disubstituted aromatic chelates” (Albion International, Inc., priority 1994, dated 1997):
“Also recorded” adds a separate entry of the source.

Key:
[1] = Iron excretion after oral dosing, sample weighed in grams (Table 2, headed Urine; evidently feces); assay type: in vivo, rats; conditions: for Urine: Total Mg Fe (per Total Gm Sample): oral, one gram sample of 15% iron
Method: (§1) Bioavailability: One gram samples of each of the above iron vanillin chelates and ferrous sulfate sales were administered orally to rats as a slurry consisting of one gram of sample contained in 4 ml of water. The samples were given via a syringe fitted with a balled needle and injected into the stomach of the animals. Each one gram sample of 15% iron would deliver 150 mg of Fe which is ten times the recommended daily allowance of iron for a human being of average size. Obviously, such a dosage is many times higher than required for the test animals considering that the rats weighed an average of about 125 grams each. One sample of two grams of chelate suspended as a slurry in 8 ml of water was found too be too much volume and overfilled the stomach of the rat resulting in the loss of some of the dosage.
(§2) The animals were observed over a two day (48 hour) period and their urine and feces were collected. At the end of the 48 hour period the animals were sacrificed and blood samples were taken.
(§3) There follows a comparison of the urine, feces and blood tests taken from the rats at 24 and 48 hours post dosage.

Rats = test: Observation of rats over 48 hours after oral dosing; assay type: in vivo
Method: as §1, §2

[2] = Iron excretion in urine after oral dosing, sample in ml (Table 3); assay type: in vivo, rats; conditions: one gram sample of 15% iron
Method: as §1, §2, §3

Substance: ferrous sulfate [FeSO4]
- Urine: Total Mg Fe (per Total Gm Sample) ([1]; 24 hours): 1.18 Mg Fe
- Urine: Total Mg Fe (per Total Gm Sample) ([1]; 48 hours): 61.6 Mg Fe
- excretion of iron in the feces ([1]; after 48 hours, versus iron vanillate): much higher excretion of iron in the feces
- appearance and behavior of rats (Rats; 48 hour period, one gram sample of 15% iron, oral): appeared listless and produced little urine and feces; also recorded: listless, non-reactive, retired and demonstrated abnormal breathing behavior
- time without food or water consumption post dosage (Rats; one gram sample of 15% iron, oral): approximately 26 hours
- time to hematuria following dosage (Rats; one of the ferrous sulfate fed rats): ≤ 2.5 h
- Urine: Total Mg Fe (per Total Ml Sample) ([2]; 24 hours): 0.020 Mg Fe
- Urine: Total Mg Fe (per Total Ml Sample) ([2]; 48 hours): 0.010 Mg Fe
